In series [1] the test system is S. pneumoniae serotype 3 (WU2). The experiment in a line: Opsonophagocytic killing (OPK) assay with HL-60 cells differentiated into granulocytes. Type of series: cell-based, Streptococcus pneumoniae.
Series [2] deals with HL-60-derived granulocytes. Put plainly: Flow cytometric opsonophagocytic assay (fOPA), respiratory burst with OXYBURST-labeled S. pneumoniae serotype 23F. Type of series: cell-based, human. Conditions: P4 100 μg/mL; QC2 serum; titrated out with antibody dilution; FIG. 2A. The procedure:
(§1) The flow cytometric opsonophagocytic assay (fOPA) was performed with HL-60 cells differentiated into granulocytes or monocytes as described by Martinez et al., Clin Diagn Lab Immunol 9:485-8, 2002; Martinez et al., Clin Vaccine Immunol 13:459-66, 2006; and Mezzatesta et al., Infect Immun 42:99-105, 1983. In-house quality-control sera (QC5 and QC268) were used as a source for serotypespecific antibodies against the capsular Ps of S. pneumoniae serotype 14 and Neisseria meningitides A, respectively. Polystyrene beads were covalently linked to S. pneumoniae and non-S. pneumoniae antigens, as described by Martinez et al., Clin Diagn Lab Immunol 9:485-8, 2002; and Martinez et al., Clin Vaccine Immunol 13:459-66, 2006 and used in fOPA.
A loopful of the frozen stock of S. pneumoniae serotype 23F was grown overnight (37° C. in 5% CO2) in Todd-Hewitt broth (Difco) supplemented with 0.5% yeast extract (THYE). A loopful of the overnight culture was transferred to 1 mL of fresh THYE broth and incubated for 3 hours. From this, 200 μL was transferred to 5 mL of THYE broth and incubated for 3 hours, after which 1 mL was transferred to 5 mL of THYE broth and incubated for another 3 hours (all incubations were done at 37° C. in 5% CO2). After the third passage, the bacterial suspension was centrifuged at 6000 g for 10 minutes and resuspended in 1 mL of 0.01 mol/L phosphate buffered saline (PBS). […]
A general note: In flow cytometry, cells or beads pass a laser one at a time.

Series [3] deals with freshly isolated granulocytes from human blood. The experiment in a line: fOPA, opsonophagocytic uptake (OPU) of S. pneumoniae serotype 14 Ps-coated beads. It is filed as cell-based. The conditions noted are these: P4 100 μg/mL. Here is the method: as §1
Heparinized venous blood was obtained from the Emory Blood Donor Services. A leukocyte separation kit, HISTOPAQUE®-1119 (Sigma), was used to separate granulocytes from the blood, in accordance with the method recommended by the manufacturer.

For a further series, the system named is HL-60-derived monocytes. Put plainly: fOPA, OPU of N. meningitidis A Ps-coated beads. Type of series: cell-based, human. The conditions noted are these: P4 100 μg/mL; QC268 serum; FIG. 2C. Here is the method:
as §1

The nature of a further series: P4 toxicity test in mice. Type of series: in vivo. The conditions noted are these: ip, 1, 10, 100 and 1000 μg/mouse; 10-week-old ND4-SW mice. The procedure: At 72 hours, all the infected mice were moribund (n=60; moribund score, 2-3 [see below]). At 72 and 96 hours after infection, 40 animals were passively immunized with gamma globulin (100 μL/mouse; iv, n=20; ip, n=20). After a time lapse of 20 minutes, allowing for possible preopsonization in vivo, 20 of the passively immunized mice (intravenous (iv), n=10; intraperitoneal (ip), n=10) received P4 (100 μg; 100 μL/mouse) through an iv or ip route. Control mice were given DEPC water (100 μL) or P4 alone. Initially, P4 peptide was tested for toxicity in mice at 1, 10, 100, and 1000 μg. P4 was injected ip into 10-week-old ND4-SW mice at a constant volume of 100 μL.

In series [4] the test system is S. pneumoniae serotype 3 (WU2). The experiment in a line: Combination therapy of moribund mice after intranasal S. pneumoniae WU2 infection (Example 2). It is filed as in vivo. An excerpt: S. pneumoniae serotype 3 (WU2) was used for mouse infections as described previously (Rajam et al. J. Infect. Dis. 199:1233-1238, 1999). P4, a 28-amino-acid peptide, was synthesized, purified, and prepared for combination therapy as described previously (Carlone et al. Microb. Pathog. 44:186-196, 2008). Gamma globulin (intravenous immunoglobulin [IVIG]; Gamunex, Telecris, N.C.) was used as a source of Pnc serotype-specific polysaccharide antibodies (Frasch and Scott Clin. Diagn. Lab. Immunol. 11:1158-1164, 2004; Rajam et al., Clin. Vaccine Immunol. 14:1223-1227, 2007; Romero-Steiner et al., Clin. Diagn. Lab. Immunol. 10:1019-1024, 2003). Ceftriaxone (catalog no. C5793; Sigma-Aldrich, St. Louis, Mo.), an expanded-spectrum cephalosporin, was dissolved in phosphate-buffered saline (0.01 M), and working dilutions in phosphate-buffered saline were made for mouse inoculations.
Female Swiss Webster mice (Charles River Laboratories, Wilmington, Mass.) 6 to 10 weeks of age were used in this study. All experiments were approved by the Institutional Animal Care and Use Committee (IACUC) and conducted according to the institutional ethical guidelines for animal experiments and safety guidelines.
Intranasal infections of mice with a Pnc isolate were carried out by adopting the methodology described by Briles et al., 2003. Briefly, a mouse was injected intraperitoneally (ip) with 20 μl of 100-mg/ml ketamine hydrochloride (KETASET®; Wyeth). Once the mouse was lethargic, 40 μl of the bacterial suspension (˜2.1×10^7 cells/mouse) was dispensed drop by drop close to the nose, allowing the mouse to inhale the bacteria. Scruffiness combined with a hunched posture or lethargy indicated moribundity in a mouse. […] Control groups included untreated animals or animals that received P4 alone, IVIG alone, or ceftriaxone (at 0.3, 3.0, 300, or 3,000 μg/mouse) alone. Treatment groups included mice that received a single inoculum containing P4 and IVIG with or without ceftriaxone at one of three different doses (0.3, 3.0, or 300 μg/mouse).
Mice were restrained using a Tailveiner restrainer (model no. TV-150; Braintree Scientific, Braintree, Mass.). IVIG and/or P4 was administered intravenously (iv) using a 25-gauge needle and a 1-ml syringe. IVIG (100-μl volume/mouse) was administered first, followed 20 min later by P4 (50 μg in a 100-μl volume/mouse). Ceftriaxone was administered (ip in a 100-μl volume/mouse) 30 min after P4 administration. Animals were monitored daily for 7 days or (in the repeat infection study) 36 days post treatment for clinical signs of disease progression. For repeat therapy, mice rescued with P4 combination therapy were reinfected on day 28 post treatment and treated again with P4 combination therapy.
The in vivo combination therapy experiments were repeated three to five times, and repeat therapy was performed once. The numbers of moribund animals up to 7 and 36 days after the combination and repeat therapies, respectively, were recorded, and the data were analyzed for significant differences among various groups by using the paired two-sample t test for means in MICROSOFT® Excel 2003.

Series [5] relates to S. pneumoniae serotype 3 (WU2). Put plainly: Test for bacteremia in blood of treated mice. It is filed as in vivo. The conditions noted are these: P4-treated mice. Here is the method:
Blood samples from P4-treated and untreated mice were collected (Rajam et al., J. Infect. Dis. 199:1233-1238, 2009), and […] aliquots of the heparinized blood samples were spread onto plates of blood agar (blood agar base plus 5% sheep blood plus gentamicin [2.5 mg/liter]). The plates were incubated for 18 to 24 hours at 37° C. in 5% CO^2, and bacteria were counted.

For series [6], the system named is S. pneumoniae serotype 3 (WU2). The conditions noted are these: P4 100 μg/ml; PMNs from infected (1 and 2 hours postinfection) or uninfected mice; gamma globulin as IgG source; P<0.05.
Method: We used the in vitro opsonophagocytic killing assay (OPKA) as described previously by Romero-Steiner et al. (Romero-Steiner et al., Clin. Diagn. Lab. Immunol. 4:415-422, 1997) with polymorphonuclear leukocytes (PMNs) isolated from mice (Devi et al., Indian J. Physiol. Pharmacol. 39:354-360, 1995). Peripheral blood samples were collected from mice 1 and 2 hours postinfection (with Pnc WU2) or from uninfected controls as described previously (Frasch and Scott, 2004), and the buffy coat fractions were separated (Devi et al, 1995) and used as the source of effector cells. Gamma globulin (Gamunex, Telecris, N.C.) was used as the serotype-specific antibody source. S. pneumoniae serotype 3 (WU2) was propagated, stored, and used in this assay as described previously (Rajam et al., 2007; Romero-Steiner, 2006). A 100-μg/ml P4 peptide solution was added to the OPKA mixture at the preopsonization stage, and the control wells received diethyl pyrocarbonate water.
The test system of another series is anti-P4 IgG. The conditions noted are these: serum 14 days post infection from mice treated with P4 therapy.

Where “and” joins values, the source holds several entries; their conditions need not be identical. Identical values can stand only once. Entries after “also recorded” stand apart in the source; their conditions may differ. Ends that are not written are not given here. Some results are limits rather than exact numbers.

Method for anti-P4 IgG: Blood samples from mice treated with P4 therapy were collected 14 days post infection, and the serum fractions were separated by adopting the methodology described previously (Rajam, 2009). An enzyme-linked immunosorbent assay (ELISA) was performed to detect and quantify antiprotein immunoglobulin G (IgG) as described previously, with minor modifications (Scott, et al., Clin. Diagn. Lab. Immunol. 12:1195-1201, 2005; Scott et al., J. Infect. Dis. 186:220-226, 2002). Briefly, ELISA plates were coated with the P4 peptide at a 5-μg/ml concentration. Plates were incubated at 4° C. overnight and used to detect and quantify anti-P4 IgG in mouse sera. Horseradish peroxidase-labeled anti-mouse IgG (Sigma, St. Louis, Mo.) was used as the reporter antibody. SUREBLUE® 3,3′,5,5′-tetramethylbenzidine (KPL, Gaithersburg, Md.) was used as the substrate, and 1 N HCl was used as the stop solution. Samples were assayed in triplicate, and suitable positive and negative controls were included.

Consider LFVESSVKRRPMKTVSQDTNIPIYAQIF [P4], for which, in series [1] (P4 5 μg/mL, gamma globulin 1:8, FIG. 1C), the “P4-mediated change in OPK over control” value was “no change in OPK”. Further, the “P4-mediated increase in OPK over control” value in series [1] (P4 10 μg/mL, gamma globulin 1:8, FIG. 1C) was 8%; in series [1] (P4 50 μg/mL, gamma globulin 1:8, FIG. 1C), 30%; in series [1] (P4 100 μg/mL, gamma globulin 1:8, FIG. 1C) it was 35%; in [1] (absence of a complement source (heat-inactivated complement), FIG. 1B), “no increase in OPK”; in series [1] (gamma globulin 1:8 dilution, P4 100 μg/mL, FIG. 1A) it was 35%; in series [1] (gamma globulin 1:32 dilution, FIG. 1A), “paralleling the results obtained for controls”. Besides, the “intraphagocytic respiratory burst (OXYBURST signal)” value in series [2] was “increase in the intraphagocytic respiratory burst; also recorded: increased the respiratory burst”. Also, the “increase in OPU of S. pneumoniae serotype 14 Ps beads” value in series [3] (antibody dilution 1:64) is reported as 52%; in series [3] (antibody dilution 1:128) it was 48%; in [3] (antibody dilution 1:256), 25%; in [3] (antibody dilution 1:512), 5%; in [3] (overall figure, FIG. 2B), 50%. Besides, in series [3] (in the presence of QC2, FIG. 2B legend), the “OPU of S. pneumoniae serotype 14 Ps-coated beads (in words)” value is reported as “increased the OPU”. Further, in the series with HL-60-derived monocytes, the “OPU of N. meningitidis A Ps-coated beads” value is listed as “increase in the OPU; also recorded: increased the OPU”. Moreover, the “toxic effect on mice” value in the series “P4 toxicity test in mice” is on record as “no apparent toxic effect”. Also, the “protection (survival comparable to untreated controls)” value in series [4] (P4 alone) is listed as “poor protection”. Moreover, the “bacteremia in blood samples” value in series [5] is “no bacteremia”. Besides, in [6], the “increase in opsonophagocytic killing over control” value was > 80% and 80%. Moreover, the “anti-P4 IgG in serum” value in the series on anti-P4 IgG was “negative”.

Regarding `CO/N=C(\C(=O)N[C@@H]1C(=O)N2C(C(=O)O)=C(CSc3nc(=O)c(=O)[nH]n3C)CS[C@H]12)c1csc(N)n1` [ceftriaxone, Ceftriaxone], the “protection (survival comparable to untreated controls)” value in series [4] (ceftriaxone alone 0.3 μg ip), in [4] (ceftriaxone alone 3.0 μg ip) and in series [4] (ceftriaxone alone 300 μg ip) was “poor protection” throughout. Further, in series [4] (ceftriaxone alone 3,000 μg ip, 168 hours), the survival rate is 90%.

For the origin of these results see patent US9101582B2, “Use of a pneumococcal P4 peptide for enhancing opsonophagocytosis in response to a pathogen” (priority 2008, dated 2015).
